Source: ChEMBL document CHEMBL1201862, “PubChem BioAssay data set” (2004)
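Values below derive from 48-hour exposures of cells grown in 96-well plates, with endpoints linearly interpolated between the two concentrations bracketing the appropriate inhibition level. Here, GI50 denotes the concentration required for 50% inhibition of growth.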 Calls of active or inactive are those of the source. Cut-off read from the data, not from the text of the source: active = GI50 up to about 1.1 µM and inactive = higher.

Experiments:
Assay in all cases: NCI-60 cell line screen, 48 h
[1] = test system: K562
[2] = test system: OVCAR-8
[3] = test system: SNB-78
[4] = test system: OVCAR-3
[5] = test system: HOP-62
[6] = test system: A549
[7] = test system: 786-0
[8] = test system: SK-MEL-28
[9] = test system: KM12
[10] = test system: U-251
[11] = test system: SW-620
[12] = test system: SN12C
[13] = test system: OVCAR-5
[14] = test system: SR
[15] = test system: DMS-273
[16] = test system: DLD-1
[17] = test system: A498
[18] = test system: ACHN
[19] = test system: TK-10
[20] = test system: HT-29
[21] = test system: CCRF-CEM
[22] = test system: NCI-H522
[23] = test system: EKVX
[24] = test system: KM-20L2
[25] = test system: COLO 205
[26] = test system: SNB-75
[27] = test system: CAKI-1
[28] = test system: SNB-19
[29] = test system: SK-MEL-2
[30] = test system: HCT-116
[31] = test system: M14
[32] = test system: DMS-114
[33] = test system: SF-539
[34] = test system: IGROV-1
[35] = test system: UO-31
[36] = test system: RPMI-8226
[37] = test system: MOLT-4
[38] = test system: HCC 2998
[39] = test system: NCI-H23
[40] = test system: HCT-15
[41] = test system: OVCAR-4
[42] = test system: NCI-H226
[43] = test system: RXF 393
[44] = test system: UACC-257
[45] = test system: HL-60
[46] = test system: LXFL 529
[47] = test system: SF-295
[48] = test system: NCI-H460
[49] = test system: LOX IMVI
[50] = test system: XF498
[51] = test system: SF-268
[52] = test system: SK-OV-3
[53] = test system: UACC-62
[54] = test system: M19-MEL
[55] = test system: Malme-3M
[56] = test system: HOP-92
[57] = test system: SK-MEL-5

Measured: GI50

O=[N+]([O-])C=C(c1ccc(Cl)cc1)c1ccc(Cl)cc1
17.2 µM: [40]
inactive: [1] 21.3 µM | [2] 17.6 µM | [3] 18.2 µM | [4] > 10 µM | [5] 18.6 µM | [6] 19.7 µM | [7] 16.5 µM | [8] 16.8 µM | [9] 14.6 µM | [10] 16.1 µM | [11] 16.2 µM | [12] 19.5 µM | [13] 14.5 µM | [14] 19.5 µM | [15] 5.69 µM | [16] 13.9 µM | [17] 20 µM | [18] 16.7 µM | [19] 19.4 µM | [20] 18.9 µM | [21] 22 µM | [22] 14.4 µM | [23] 17.5 µM | [24] 18.9 µM | [25] 3.85 µM | [26] 21.7 µM | [27] 16.6 µM | [28] 18.5 µM | [29] 29.2 µM | [30] 17.7 µM | [31] 14.8 µM | [32] 15.2 µM | [33] 17 µM | [34] 28.1 µM | [35] 14.2 µM | [36] 11.2 µM | [37] 17.9 µM | [38] 19 µM | [39] 9.68 µM | [41] 13.5 µM | [42] 16.7 µM | [43] 18.7 µM | [44] 20.8 µM | [45] 17.1 µM | [46] 15.1 µM | [47] 18.5 µM | [48] 20.3 µM | [49] 12.7 µM

COS(=O)c1cc(Cl)cc(Cl)c1O (configuration not stated)
inactive: [1] > 100 µM | [50] > 100 µM | [4] > 100 µM | [5] > 100 µM | [8] > 100 µM | [9] > 100 µM | [10] > 100 µM | [12] > 100 µM | [13] > 100 µM | [14] > 100 µM | [51] > 100 µM | [52] 81.7 µM | [16] > 100 µM | [17] > 100 µM | [18] > 100 µM | [19] > 100 µM | [20] > 100 µM | [21] > 100 µM | [53] > 100 µM | [22] 18 µM | [23] > 100 µM | [26] 87.7 µM | [54] > 100 µM | [28] > 100 µM | [55] > 100 µM | [29] > 100 µM | [30] > 100 µM | [31] > 100 µM | [32] > 100 µM | [33] > 100 µM | [35] > 100 µM | [37] > 100 µM | [38] > 100 µM | [39] > 100 µM | [41] > 100 µM | [43] > 100 µM | [44] > 100 µM | [45] > 100 µM | [46] > 100 µM | [48] > 100 µM | [49] > 100 µM

Cc1nc(-c2nc(C)c(C(=O)NNC(=O)C[n+]3ccccc3)s2)sc1C(=O)NNC(=O)C[n+]1ccccc1
inactive: [1] 78.2 µM | [2] > 100 µM | [3] 54.8 µM | [4] 90.2 µM | [5] 33.1 µM | [6] > 100 µM | [7] 35.9 µM | [8] > 100 µM | [9] > 100 µM | [10] 79.4 µM | [11] > 100 µM | [12] 67.5 µM | [13] > 100 µM | [51] 39.7 µM | [52] 87.5 µM | [16] 19.3 µM | [17] 58.6 µM | [18] 59.2 µM | [56] 27.5 µM | [19] > 100 µM | [20] > 100 µM | [21] 41.3 µM | [53] > 100 µM | [23] 97.3 µM | [24] > 100 µM | [25] > 100 µM | [26] 25.5 µM | [54] > 100 µM | [27] 18.6 µM | [28] 25.4 µM | [55] > 100 µM | [29] > 100 µM | [30] 47 µM | [31] > 100 µM | [32] 66.8 µM | [33] 37.8 µM | [34] 70.6 µM | [35] 25.9 µM | [36] 64.6 µM | [37] 22.7 µM | [38] > 100 µM | [39] 45.7 µM | [57] 45.7 µM | [42] 39.5 µM | [43] 39.5 µM | [44] 94.2 µM | [45] 40.2 µM | [46] 91 µM | [47] 65.6 µM | [48] > 100 µM | [49] 66.2 µM
56.4 µM: [40]
